In one assay the test system is Phakopsora pachyrhizi. The assay can be described thus: Asian Soybean Rust fungicidal activity (PHAKPA). The note with it: Phakopsora pachyrhizi, in Glycine max.
The test system of the next assay is Pyricularia oryzae. The assay can be described thus: whole plant or invertebrate. Format: in vivo. To be noted: 24 h, read-out: PYRIOR % Control rating.
For the next assay, the system named is Alternaria solani. The assay can be described thus: Tomato Early Blight fungicidal activity (ALTESO). The class given is in vivo. The note with it: 24 h, high volume, 1 Day Protectant, read-out: ALTESO % Control rating. The protocol: All fungicides were evaluated using the aforementioned method for their activity vs. all target diseases, unless stated otherwise. Wheat leaf blotch and brown rust activity were also evaluated using track spray applications, in which case the fungicides were formulated as EC formulations, containing 0.1% Trycol 5941 in the spray solutions. Wheat plants (variety Yuma) were grown from seed in a greenhouse in 50% mineral soil/50% soil-less Metro mix until the first leaf was fully emerged, with 7-10 seedlings per pot. These plants were inoculated with an aqueous spore suspension of Zymoseptoria tritici either prior to or after fungicide treatments. After inoculation the plants were kept in 100% relative humidity (one day in a dark dew chamber followed by two to three days in a lighted dew chamber at 20° C.) to permit spores to germinate and infect the leaf. The plants were then transferred to a greenhouse set at 20° C. for disease to develop. When disease symptoms were fully expressed on the 1st leaves of untreated plants, infection levels were assessed on a scale of 0 to 100 percent disease severity. Percent disease control was calculated using the ratio of disease severity on treated plants relative to untreated plants. Tomato plants (variety Outdoor Girl) were propagated in soil-less Metro mix, with each pot having one plant, and used when 12 to 14 days old. Test plants were inoculated with an aqueous spore suspension of Alternaria solani 24 hr after fungicide treatments. After inoculation the plants were kept in a dew room at 22° C. with 100% relative humidity for 48 hr to permit spores to germinate and infect the leaf. The plants were then transferred to a growth room at 22° C. for disease to develop. Fungicide formulation, application and disease assessment on the sprayed leaves followed the procedures as described in the Example A.

Another assay concerns Puccinia triticina. The assay can be described thus: Wheat Brown Rust fungicidal activity (PUCCRT). Format: in vivo. To be noted: Low Volume Cereal Activity at 121.5 g/Ha.
The subject of assay [1] is Colletotrichum lagenarium. The assay can be described thus: Cucumber Anthracnose fungicidal activity (COLLLA). The class given is in vivo. To be noted: Colletotrichum orbiculare, 24 h, high volume, 1 Day Protectant, read-out: COLLLA % Control rating. The protocol: All fungicides were evaluated using the aforementioned method for their activity vs. all target diseases, unless stated otherwise. Wheat leaf blotch and brown rust activity were also evaluated using track spray applications, in which case the fungicides were formulated as EC formulations, containing 0.1% Trycol 5941 in the spray solutions. Wheat plants (variety Yuma) were grown from seed in a greenhouse in 50% mineral soil/50% soil-less Metro mix until the first leaf was fully emerged, with 7-10 seedlings per pot. These plants were inoculated with an aqueous spore suspension of Zymoseptoria tritici either prior to or after fungicide treatments. After inoculation the plants were kept in 100% relative humidity (one day in a dark dew chamber followed by two to three days in a lighted dew chamber at 20° C.) to permit spores to germinate and infect the leaf. The plants were then transferred to a greenhouse set at 20° C. for disease to develop. When disease symptoms were fully expressed on the 1st leaves of untreated plants, infection levels were assessed on a scale of 0 to 100 percent disease severity. Percent disease control was calculated using the ratio of disease severity on treated plants relative to untreated plants. Cucumber seedlings (variety Bush Pickle) were propagated in soil-less Metro mix, with each pot having one plant, and used in the test when 12 to 14 days old. Test plants were inoculated with an aqueous spore suspension of Colletotrichum lagenarium 24 hr after fungicide treatments. After inoculation the plants were kept in a dew room at 22° C. with 100% relative humidity for 48 hr to permit spores to germinate and infect the leaf. The plants were then transferred to a growth room set at 22° C. for disease to develop. Fungicide formulation, application and disease assessment on the sprayed leaves followed the procedures as described in the Example A.

From patent US20180002288A1, “USE OF PICOLINAMIDES AS FUNGICIDES” (DOW AGROSCIENCES LLC, priority 2014, published 2018) come the findings set out here.

Like-named read-outs stand apart in the source and are kept apart here.

`COc1ccnc(C(=O)N[C@@H](C)C(=O)O[C@@H](C)[C@H](Oc2ccccc2)c2ccc(F)cc2F)c1OCOC(C)=O` [Example 250]: the pest or weed control at 25 ppm in the assay on Phakopsora pachyrhizi (24 h, read-out: PHAKPA 1DP % Control rating, soybean, high volume, 25 ppm, 1 Day Protectant) was above 80%; in the assay with Phakopsora pachyrhizi (72 h, read-out: PHAKPA 3DC % Control rating, soybean, high volume, 25 ppm, 3 Day Curative), below 80%. The pest or weed control at 100 ppm with Pyricularia oryzae is below 80%; in the assay on Alternaria solani, below 0%; in assay [1], above 80%. Further, the pest or weed control at 121.5 g/ha was above 80% in the assay on Puccinia triticina (24 h, 1 Day Protectant, read-out: PUCCRT 1DP (Wheat Brown Rust, 1 Day Protectant)) and above 80% in the assay on Puccinia triticina (72 h, 3 Day Curative, read-out: PUCCRT 3DC (Wheat Brown Rust, 3 Day Curative)).
